Data: PubChem BioAssay AID248 (DTP/NCI, 2004)
“And” between values parts separate entries of the source, which are not always exact repeats. Equal entries are not always repeated. Inconclusive results and toxic doses are left out. No stated cut-off is given here; in the data, active means T/C of 150% or more; inactive means T/C below 125%.

Tested on: L1210 leukemia ip in BDF1 mice, survival T/C
Experiment: NCI In Vivo Anticancer Drug Screen. Data for tumor model L1210 Leukemia (intraperitoneal) in B6D2F1 (BDF1) mice
Conditions: endpoint: mean survival time, higher = longer survival
In short: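 Tumor was transplanted into mice, which were then dosed with test compound or vehicle alone. Survival was recorded for each group, and the treated figure was expressed relative to the control figure.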

[1] = dose: 50.0 mg/kg/injection, schedule: Q01DX009 (ip), vehicle: saline
[2] = dose: 100.0 mg/kg/injection, schedule: Q01DX009 (ip), vehicle: saline
[3] = dose: 200.0 mg/kg/injection, schedule: Q01DX009 (ip), vehicle: saline
[4] = dose: 100.0 mg/kg/injection, schedule: Q04DX003 (ip), vehicle: Klucel (hydroxypropylcellulose) (HPC)
[5] = dose: 200.0 mg/kg/injection, schedule: Q04DX003 (ip), vehicle: Klucel (hydroxypropylcellulose) (HPC)
[6] = dose: 400.0 mg/kg/injection, schedule: Q04DX003 (ip), vehicle: Klucel (hydroxypropylcellulose) (HPC)
[7] = dose: 100.0 mg/kg/injection, schedule: Q04DX003 (ip), vehicle: saline with Tween-80
[8] = dose: 100.0 mg/kg/injection, schedule: Q01DX001 (ip), vehicle: carboxymethylcellulose (CMC)
[9] = dose: 200.0 mg/kg/injection, schedule: Q01DX001 (ip), vehicle: carboxymethylcellulose (CMC)
[10] = dose: 400.0 mg/kg/injection, schedule: Q01DX001 (ip), vehicle: carboxymethylcellulose (CMC)
[11] = dose: 100.0 mg/kg/injection, schedule: Q04DX002 (ip), vehicle: Klucel (hydroxypropylcellulose) (HPC)
[12] = dose: 200.0 mg/kg/injection, schedule: Q04DX002 (ip), vehicle: Klucel (hydroxypropylcellulose) (HPC)
[13] = dose: 400.0 mg/kg/injection, schedule: Q04DX002 (ip), vehicle: Klucel (hydroxypropylcellulose) (HPC)
[14] = dose: 100.0 mg/kg/injection, schedule: Q01DX001 (ip), vehicle: saline
[15] = dose: 200.0 mg/kg/injection, schedule: Q01DX001 (ip), vehicle: saline
[16] = dose: 400.0 mg/kg/injection, schedule: Q01DX001 (ip), vehicle: saline

Measured: T/C

CC1(C)Cc2cccc(C(=O)CCCN3CCC4(CC3)C(=O)NCN4c3ccccc3)c2O1
inactive: dose: 50.0 mg/kg/injection, schedule: Q01DX001 (ip), vehicle: Klucel (hydroxypropylcellulose) (HPC) 100 % of control | dose: 100.0 mg/kg/injection, schedule: Q01DX001 (ip), vehicle: Klucel (hydroxypropylcellulose) (HPC) 102 % of control | dose: 200.0 mg/kg/injection, schedule: Q01DX001 (ip), vehicle: Klucel (hydroxypropylcellulose) (HPC) 93 % of control

COc1ccc(OC)c(-c2cc3c(OC)ccc(OC)c3[nH]2)c1
inactive: dose: 25.0 mg/kg/injection, schedule: Q04DX002 (ip), vehicle: saline with Tween-80 96 % of control | dose: 50.0 mg/kg/injection, schedule: Q04DX002 (ip), vehicle: saline with Tween-80 86 % of control | dose: 100.0 mg/kg/injection, schedule: Q04DX002 (ip), vehicle: saline with Tween-80 99 % of control

Clc1ccnc2[nH]ncc12
inactive: dose: 60.0 mg/kg/injection, schedule: Q01DX001 (ip), vehicle: other 97 % of control | dose: 120.0 mg/kg/injection, schedule: Q01DX001 (ip), vehicle: other 105 % of control

CC(Cc1ccc(O)c(O)c1)C(C)Cc1ccc(O)c(O)c1 (stereo unspecified)
inactive: [1] 98 % of control | [2] 100 % of control | [3] 96 % of control | dose: 400.0 mg/kg/injection, schedule: Q01DX009 (ip), vehicle: saline 100 % of control

COc1ccc(C(=O)c2ccccc2)cc1OC
inactive: [4] 89 % of control | [5] 90 % of control | [6] 89 % of control

CC(C)CC(NC(=O)C(F)(F)F)C(=O)O (stereo unspecified)
inactive: [7] 97 % of control | dose: 200.0 mg/kg/injection, schedule: Q04DX003 (ip), vehicle: saline with Tween-80 90 % of control

CSc1ncnc2c1ncn2/N=C/c1ccccc1
inactive: [8] 96 % of control | [9] 95 % of control | [10] 96 % of control

CC(=O)Nc1ccccc1N
inactive: [2] 117 % of control | [11] 92 % of control | [3] 113 % of control | [12] 113 % of control | dose: 265.0 mg/kg/injection, schedule: Q01DX009 (ip), vehicle: saline 114 % of control | [13] 103 % of control

CN(C)c1ccc2cc(S(=O)(=O)O)cc(O)c2c1
inactive: dose: 100.0 mg/kg/injection, schedule: Q01DX009 (ip), vehicle: saline with Tween-80 102 % of control | [4] 105 % of control | dose: 200.0 mg/kg/injection, schedule: Q01DX009 (ip), vehicle: saline with Tween-80 96 % of control | [5] 95 % of control | dose: 400.0 mg/kg/injection, schedule: Q01DX009 (ip), vehicle: saline with Tween-80 94 % of control | [6] 93 % of control

CCN(CC)CCCC(C)NC(=O)c1cccc2c([N+](=O)[O-])cccc12 (stereo unspecified)
inactive: dose: 25.0 mg/kg/injection, schedule: Q01DX009 (ip), vehicle: water 100 % of control | dose: 50.0 mg/kg/injection, schedule: Q01DX009 (ip), vehicle: water 108 % of control | dose: 100.0 mg/kg/injection, schedule: Q01DX009 (ip), vehicle: water 103 % of control

O=S(=O)(c1ccc(Cl)cc1)C(Cl)(Cl)Cl
inactive: dose: 100.0 mg/kg/injection, schedule: Q01DX009 (ip), vehicle: Klucel (hydroxypropylcellulose) (HPC) 93 % of control | dose: 200.0 mg/kg/injection, schedule: Q01DX009 (ip), vehicle: Klucel (hydroxypropylcellulose) (HPC) 97 % of control | dose: 400.0 mg/kg/injection, schedule: Q01DX009 (ip), vehicle: Klucel (hydroxypropylcellulose) (HPC) 96 % of control

CC1(c2cccc(Cl)c2)NC(=O)NC1=O (stereo unspecified)
inactive: [11] 112 % of control | [12] 105 % of control | [13] 108 % of control

CC1C(C)(C)C12C=CC=C2 (stereo unspecified)
inactive: [14] 102 % of control | [15] 96 % of control | [16] 96 % of control

ClCCN(CCCl)c1ccc(C=NCCCN=Cc2ccc(N(CCCl)CCCl)cc2Cl)c(Cl)c1
inactive: [8] 97 % of control | [9] 92 % of control | [10] 95 % of control

O=C1CCCCCCCS(=O)(=O)C1
inactive: dose: 75.0 mg/kg/injection, schedule: Q01DX001 (ip), vehicle: carboxymethylcellulose (CMC) 112 % of control | dose: 150.0 mg/kg/injection, schedule: Q01DX001 (ip), vehicle: carboxymethylcellulose (CMC) 104 % of control

CC(=O)CC(=O)Nc1ccccn1
inactive: [4] 97 % of control | [5] 101 % of control | [6] 98 % of control

O=C(O)C(O)c1ccc(Cl)cc1 (stereo unspecified)
inactive: [2] 96 % of control | [3] 91 % of control

O=C1c2ccccc2C(=O)c2c(O)cccc21
inactive: [4] 101 % of control | [5] 89 % of control | [6] 105 % of control

CCN(CC)CCCC(C)Nc1ccc(O)c2c1C(=O)c1ccccc1C2=O (stereo unspecified)
inactive: dose: 25.0 mg/kg/injection, schedule: Q01DX009 (ip), vehicle: saline 100 % of control | [1] 93 % of control | [2] 104 % of control | dose: 100.0 mg/kg/injection, schedule: Q04DX002 (ip), vehicle: saline 100 % of control | dose: 200.0 mg/kg/injection, schedule: Q04DX002 (ip), vehicle: saline 102 % of control

CS(=O)(=O)OCCCOS(C)(=O)=O
inactive: dose: 9.37 mg/kg/injection, schedule: Q01DX009 (ip), vehicle: Klucel (hydroxypropylcellulose) (HPC) 101 % of control | dose: 18.75 mg/kg/injection, schedule: Q01DX009 (ip), vehicle: Klucel (hydroxypropylcellulose) (HPC) 102 % of control | dose: 37.5 mg/kg/injection, schedule: Q01DX009 (ip), vehicle: Klucel (hydroxypropylcellulose) (HPC) 106 % of control | dose: 75.0 mg/kg/injection, schedule: Q01DX009 (ip), vehicle: Klucel (hydroxypropylcellulose) (HPC) 116 % of control | dose: 150.0 mg/kg/injection, schedule: Q01DX009 (ip), vehicle: Klucel (hydroxypropylcellulose) (HPC) 90 % of control

O=[N+]([O-])c1ccc(N/N=C/c2ccc(/C=N/Nc3ccc([N+](=O)[O-])cc3)cc2)cc1
inactive: dose: 15.0 mg/kg/injection, schedule: Q01DX Z (ip), vehicle: carboxymethylcellulose (CMC) 116 % of control | dose: 30.0 mg/kg/injection, schedule: Q01DX Z (ip), vehicle: carboxymethylcellulose (CMC) 104 % of control | dose: 60.0 mg/kg/injection, schedule: Q01DX Z (ip), vehicle: carboxymethylcellulose (CMC) 98 % of control and 106 % of control | dose: 120.0 mg/kg/injection, schedule: Q01DX Z (ip), vehicle: carboxymethylcellulose (CMC) 96 % of control and 98 % of control | dose: 240.0 mg/kg/injection, schedule: Q01DX Z (ip), vehicle: carboxymethylcellulose (CMC) 98 % of control | dose: 240.0 mg/kg/injection, schedule: Q01DX Z (oral), vehicle: carboxymethylcellulose (CMC) 103 % of control | dose: 480.0 mg/kg/injection, schedule: Q01DX Z (ip), vehicle: carboxymethylcellulose (CMC) 95 % of control | dose: 480.0 mg/kg/injection, schedule: Q01DX Z (oral), vehicle: carboxymethylcellulose (CMC) 103 % of control | dose: 960.0 mg/kg/injection, schedule: Q01DX Z (oral), vehicle: carboxymethylcellulose (CMC) 103 % of control

CC(=O)/C(=C/c1ccccc1)N=P(c1ccccc1)(c1ccccc1)c1ccccc1
inactive: dose: 50.0 mg/kg/injection, schedule: Q04DX003 (ip), vehicle: saline 90 % of control | [14] 87 % of control | dose: 100.0 mg/kg/injection, schedule: Q04DX003 (ip), vehicle: saline 92 % of control | [15] 89 % of control | dose: 200.0 mg/kg/injection, schedule: Q04DX003 (ip), vehicle: saline 90 % of control

Cc1nn(C2CC(O)C(CO)O2)c(=O)[nH]c1=O (stereo unspecified)
inactive: [14] 98 % of control | [15] 95 % of control | [16] 93 % of control

CCCNc1ncc(C(=O)O)c(=O)[nH]1
inactive: [7] 93 % of control

CC1=Nc2c(c(C(C)(C)C)c3nc(C)oc3c2C(C)(C)C)C1
inactive: dose: 100.0 mg/kg/injection, schedule: Q01DX001 (ip), vehicle: saline with Tween-80 97 % of control | dose: 200.0 mg/kg/injection, schedule: Q01DX001 (ip), vehicle: saline with Tween-80 94 % of control | dose: 400.0 mg/kg/injection, schedule: Q01DX001 (ip), vehicle: saline with Tween-80 94 % of control

C=C1C(=O)OC2/C=C(\C)CC/C=C(\C)CC(OC(C)=O)C12 (stereo unspecified)
inactive: dose: 50.0 mg/kg/injection, schedule: Q01DX001 (ip), vehicle: saline 96 % of control | [14] 96 % of control | [15] 107 % of control
